According to patent US20230085307A1, “PYRIDAZINONE COMPOUND AND HERBICIDE” (NISSAN CHEMICAL CORPORATION, priority 2019, published 2023):

Experiments:
late watergrass = test: Test Example 2: herbicidal activity, application during weed generation under submerged conditions (Table 17, symbol A); assay type: in vivo, late watergrass (Echinochloa oryzicola); conditions: AAH 320 g/ha; application during weed generation, submerged conditions
Procedure, shortened: (§1)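 Alluvial soil in Wagner pots was flooded to 4 cm depth and sown with the three weeds together; pots were kept in a greenhouse at 25° C. to 30° C. At the one to two leaf stage, an emulsion formulation diluted in water to a set rate went onto the water surface; scored three weeks later.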

Japanese bulrush = test: Test Example 2: herbicidal activity, application during weed generation under submerged conditions (Table 17, symbol B); assay type: in vivo, Japanese bulrush (Schoenoplectus juncoides); conditions: AAH 320 g/ha; application during weed generation, submerged conditions
Procedure, shortened: as §1

oval-leafed pondweed = test: Test Example 2: herbicidal activity, application during weed generation under submerged conditions (Table 17, symbol C); assay type: in vivo, oval-leafed pondweed (Monochoria vaginalis); conditions: AAH 320 g/ha; application during weed generation, submerged conditions
Procedure, shortened: as §1

barnyard grass [1] = test: Test Example 3: herbicidal effect by foliage application, Wagner pot (Table 18, symbol H); assay type: in vivo, barnyard grass (Echinochloa crus-galli); conditions: 320 g/ha
Procedure, shortened: (§2)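 Plants were sown in alluvial soil held under 0.1–0.5 cm standing water and grown 14 days in a greenhouse at 25–30 °C. An emulsifiable formulation, water-diluted to the set dose, was then sprayed onto the foliage, and effects were scored three weeks later using previously defined criteria.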

Chinese sprangletop = test: Test Example 3: herbicidal effect by foliage application, Wagner pot (Table 18, symbol D); assay type: in vivo, chinese sprangletop (Leptochloa chinensis); conditions: 320 g/ha
Procedure, shortened: as §2

rice flat sedge = test: Test Example 3: herbicidal effect by foliage application, Wagner pot (Table 18, symbol E); assay type: in vivo, rice flat sedge (Cyperus iria); conditions: 320 g/ha
Procedure, shortened: as §2

southern crabgrass [2] = test: Test Example 4: herbicidal effect by soil treatment (Table 19, symbol F); assay type: in vivo, southern crabgrass (Digitaria ciliaris); conditions: 320 g/ha
Procedure, shortened: (§3)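 In this soil treatment, the formulated compound reached the seeds only through the soil: seeds were buried about 1.5 cm deep in sterilized diluvial soil, then the diluted emulsion was sprayed over the surface. After three weeks at 25° C. to 30° C. in a greenhouse, effects were graded on criteria from an earlier test.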

green foxtail [3] = test: Test Example 4: herbicidal effect by soil treatment (Table 19, symbol G); assay type: in vivo, green foxtail (Setaria viridis); conditions: 320 g/ha
Procedure, shortened: as §3

barnyard grass [4] = test: Test Example 4: herbicidal effect by soil treatment (Table 19, symbol H); assay type: in vivo, barnyard grass (Echinochloa crus-galli); conditions: 320 g/ha
Procedure, shortened: as §3

wild oat [5] = test: Test Example 4: herbicidal effect by soil treatment (Table 19, symbol I); assay type: in vivo, wild oat (Avena fatua); conditions: 320 g/ha
Procedure, shortened: as §3

blackgrass [6] = test: Test Example 4: herbicidal effect by soil treatment (Table 19, symbol J); assay type: in vivo, blackgrass (Alopecurus myosuroides); conditions: 320 g/ha
Procedure, shortened: as §3

Italian ryegrass [7] = test: Test Example 4: herbicidal effect by soil treatment (Table 19, symbol K); assay type: in vivo, Italian ryegrass (Lolium multiflorum); conditions: 320 g/ha
Procedure, shortened: as §3

windgrass [8] = test: Test Example 4: herbicidal effect by soil treatment (Table 19, symbol L); assay type: in vivo, windgrass (Apera spica-venti); conditions: 320 g/ha
Procedure, shortened: as §3

velvetleaf [9] = test: Test Example 4: herbicidal effect by soil treatment (Table 19, symbol M); assay type: in vivo, velvetleaf (Abutilon theophrasti); conditions: 320 g/ha
Procedure, shortened: as §3

redroot pigweed = test: Test Example 4: herbicidal effect by soil treatment (Table 19, symbol N); assay type: in vivo, redroot pigweed (Amaranthus retroflexus); conditions: 320 g/ha
Procedure, shortened: as §3

lambsquarters [10] = test: Test Example 4: herbicidal effect by soil treatment (Table 19, symbol O); assay type: in vivo, lambsquarters (Chenopodium album); conditions: 320 g/ha
Procedure, shortened: as §3

chickweed = test: Test Example 4: herbicidal effect by soil treatment (Table 19, symbol P); assay type: in vivo, common chickweed (Stellaria media); conditions: 320 g/ha
Procedure, shortened: as §3

false cleavers [11] = test: Test Example 4: herbicidal effect by soil treatment (Table 19, symbol Q); assay type: in vivo, false cleavers (Galium spurium); conditions: 320 g/ha
Procedure, shortened: as §3

persian speedwell [12] = test: Test Example 4: herbicidal effect by soil treatment (Table 19, symbol R); assay type: in vivo, Persian speedwell (Veronica persica); conditions: 320 g/ha
Procedure, shortened: as §3

southern crabgrass [13] = test: Test Example 5: herbicidal effect by foliage application, plastic box (Table 20, symbol F); assay type: in vivo, southern crabgrass (Digitaria ciliaris); conditions: foliage application, 320 g/ha, 3 weeks after application
Procedure, shortened: (§4)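 Plants were sown into sterilized diluvial soil under about 1.5 cm cover and kept in a greenhouse at 25° C. to 30° C. Fourteen days on, foliage received an even spray of the diluted emulsion. Herbicidal or crop effect was judged three weeks afterwards.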

green foxtail [14] = test: Test Example 5: herbicidal effect by foliage application, plastic box (Table 20, symbol G); assay type: in vivo, green foxtail (Setaria viridis); conditions: foliage application, 320 g/ha, 3 weeks after application
Procedure, shortened: as §4

barnyard grass [15] = test: Test Example 5: herbicidal effect by foliage application, plastic box (Table 20, symbol H); assay type: in vivo, barnyard grass (Echinochloa crus-galli); conditions: foliage application, 320 g/ha, 3 weeks after application
Procedure, shortened: as §4

wild oat [16] = test: Test Example 5: herbicidal effect by foliage application, plastic box (Table 20, symbol I); assay type: in vivo, wild oat (Avena fatua); conditions: foliage application, 320 g/ha, 3 weeks after application
Procedure, shortened: as §4

blackgrass [17] = test: Test Example 5: herbicidal effect by foliage application, plastic box (Table 20, symbol J); assay type: in vivo, blackgrass (Alopecurus myosuroides); conditions: foliage application, 320 g/ha, 3 weeks after application
Procedure, shortened: as §4

Italian ryegrass [18] = test: Test Example 5: herbicidal effect by foliage application, plastic box (Table 20, symbol K); assay type: in vivo, Italian ryegrass (Lolium multiflorum); conditions: foliage application, 320 g/ha, 3 weeks after application
Procedure, shortened: as §4

windgrass [19] = test: Test Example 5: herbicidal effect by foliage application, plastic box (Table 20, symbol L); assay type: in vivo, windgrass (Apera spica-venti); conditions: foliage application, 320 g/ha, 3 weeks after application
Procedure, shortened: as §4

velvetleaf [20] = test: Test Example 5: herbicidal effect by foliage application, plastic box (Table 20, symbol M); assay type: in vivo, velvetleaf (Abutilon theophrasti); conditions: foliage application, 320 g/ha, 3 weeks after application
Procedure, shortened: as §4

lambsquarters [21] = test: Test Example 5: herbicidal effect by foliage application, plastic box (Table 20, symbol O); assay type: in vivo, lambsquarters (Chenopodium album); conditions: foliage application, 320 g/ha, 3 weeks after application
Procedure, shortened: as §4

false cleavers [22] = test: Test Example 5: herbicidal effect by foliage application, plastic box (Table 20, symbol Q); assay type: in vivo, false cleavers (Galium spurium); conditions: foliage application, 320 g/ha, 3 weeks after application
Procedure, shortened: as §4

persian speedwell [23] = test: Test Example 5: herbicidal effect by foliage application, plastic box (Table 20, symbol R); assay type: in vivo, Persian speedwell (Veronica persica); conditions: foliage application, 320 g/ha, 3 weeks after application
Procedure, shortened: as §4

SMILES: CCCC(=O)Oc1c(C)nn(C)c(=O)c1-c1c(-c2ccc(F)cc2)sc2ccc(F)cc12 [2-002]
- herbicidal effect rating, A: late watergrass (late watergrass): 2 (Herbicidal rate of 20% or more and less than 40%)
- herbicidal effect rating, B: Japanese bulrush (Japanese bulrush): 0 (Herbicidal rate of 5% or less (almost no effect))
- herbicidal effect rating, C: oval-leafed pondweed (oval-leafed pondweed): 3 (Herbicidal rate of 40% or more and less than 70%)
- herbicidal effect on H (barnyard grass), rating 0-5 (barnyard grass [1]): 5 (Herbicidal rate of 90% or more (almost completely withered))
- herbicidal effect on D (Chinese sprangletop), rating 0-5 (Chinese sprangletop): 5 (Herbicidal rate of 90% or more (almost completely withered))
- herbicidal effect on E (rice flat sedge), rating 0-5 (rice flat sedge): 5 (Herbicidal rate of 90% or more (almost completely withered))
- herbicidal effect rating, F: southern crabgrass (southern crabgrass [2]): 5 (Herbicidal rate of 90% or more (almost completely withered))
- herbicidal effect rating, G: green foxtail (green foxtail [3]): 5 (Herbicidal rate of 90% or more (almost completely withered))
- herbicidal effect rating, H: barnyard grass (barnyard grass [4]): 4 (Herbicidal rate of 70% or more and less than 90%)
- herbicidal effect rating, I: wild oat (wild oat [5]): 3 (Herbicidal rate of 40% or more and less than 70%)
- herbicidal effect rating, J: blackgrass (blackgrass [6]): 1 (Herbicidal rate of 5% or more and less than 20%)
- herbicidal effect rating, K: Italian ryegrass (Italian ryegrass [7]): 5 (Herbicidal rate of 90% or more (almost completely withered))
- herbicidal effect rating, L: windgrass (windgrass [8]): 1 (Herbicidal rate of 5% or more and less than 20%)
- herbicidal effect rating, M: velvetleaf (velvetleaf [9]): 5 (Herbicidal rate of 90% or more (almost completely withered))
- herbicidal effect rating, N: redroot pigweed (redroot pigweed): 5 (Herbicidal rate of 90% or more (almost completely withered))
- herbicidal effect rating, O: lambsquarters (lambsquarters [10]): 4 (Herbicidal rate of 70% or more and less than 90%)
- herbicidal effect rating, P: chickweed (chickweed): 3 (Herbicidal rate of 40% or more and less than 70%)
- herbicidal effect rating, Q: false cleavers (false cleavers [11]): 4 (Herbicidal rate of 70% or more and less than 90%)
- herbicidal effect rating, R: persian speedwell (persian speedwell [12]): 5 (Herbicidal rate of 90% or more (almost completely withered))
- effect on southern crabgrass (F) (southern crabgrass [13]): 5 (Herbicidal rate of 90% or more (almost completely withered))
- effect on green foxtail (G) (green foxtail [14]): 5 (Herbicidal rate of 90% or more (almost completely withered))
- effect on barnyard grass (H) (barnyard grass [15]): 5 (Herbicidal rate of 90% or more (almost completely withered))
- effect on wild oat (I) (wild oat [16]): 4 (Herbicidal rate of 70% or more and less than 90%)
- effect on blackgrass (J) (blackgrass [17]): 4 (Herbicidal rate of 70% or more and less than 90%)
- effect on Italian ryegrass (K) (Italian ryegrass [18]): 5 (Herbicidal rate of 90% or more (almost completely withered))
- effect on windgrass (L) (windgrass [19]): 3 (Herbicidal rate of 40% or more and less than 70%)
- effect on velvetleaf (M) (velvetleaf [20]): 5 (Herbicidal rate of 90% or more (almost completely withered))
- effect on lambsquarters (O) (lambsquarters [21]): 5 (Herbicidal rate of 90% or more (almost completely withered))
- effect on false cleavers (Q) (false cleavers [22]): 5 (Herbicidal rate of 90% or more (almost completely withered))
- effect on persian speedwell (R) (persian speedwell [23]): 5 (Herbicidal rate of 90% or more (almost completely withered))
